This is an account of results in US20180099931A1 (AbbVie S.à.r.l., priority 2016, published 2018).

Usually EC50 stands for the midpoint of the concentration-response curve.

Read-outs that look alike come from different tables or passages of the source.

This experiment addresses T1, F508delCFTR (Homo sapiens, UniProt P13569, DEL508-508).
T1 construct: expressed in transfected cells; host or cells: CFBE41o- human lung-derived epithelial cells (CFBE4lo-F508delCFTR-HRP), doxycycline-inducible
As to the kind of experiment: Cell Surface Expression-Horse Radish Peroxidase (CSE-HRP) Assay.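 For Maximum % activity (with co-corrector): co-corrector and positive control are both the same reference corrector at 2 µM.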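 For Maximum % activity (without co-corrector): percent of the 2 µM on-plate positive control corrector response above DMSO.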 The class given is cell-based. The settings on record: for Emax / Maximum % activity (with co-corrector) / Maximum % activity (without co-corrector): maximum at any tested concentration, normalized to on-plate positive control; for Emax: read-out: Maximum % activity (without co-corrector).

Where [1] appears, read: test compound without co-corrector.
Where [2] appears, read: test compound without co-corrector, read-out: EC50 (without co-corrector).
Setting [3] is: with co-corrector (2 μM of 3-[(2R,4R)-4-({[1-(2,2-difluoro-1,3-benzodioxol-5-yl)cyclopropyl]carbonyl}amino)-7-methoxy-3,4-dihydro-2H-chromen-2-yl]benzoic acid).
The mark [4] stands for this setting: with co-corrector (2 μM of 3-[(2R,4R)-4-({[1-(2,2-difluoro-1,3-benzodioxol-5-yl)cyclopropyl]carbonyl}amino)-7-methoxy-3,4-dihydro-2H-chromen-2-yl]benzoic acid), read-out: EC50 (with co-corrector).

T1 sequence (P13569 with tags, fused parts or gaps DEL508-508): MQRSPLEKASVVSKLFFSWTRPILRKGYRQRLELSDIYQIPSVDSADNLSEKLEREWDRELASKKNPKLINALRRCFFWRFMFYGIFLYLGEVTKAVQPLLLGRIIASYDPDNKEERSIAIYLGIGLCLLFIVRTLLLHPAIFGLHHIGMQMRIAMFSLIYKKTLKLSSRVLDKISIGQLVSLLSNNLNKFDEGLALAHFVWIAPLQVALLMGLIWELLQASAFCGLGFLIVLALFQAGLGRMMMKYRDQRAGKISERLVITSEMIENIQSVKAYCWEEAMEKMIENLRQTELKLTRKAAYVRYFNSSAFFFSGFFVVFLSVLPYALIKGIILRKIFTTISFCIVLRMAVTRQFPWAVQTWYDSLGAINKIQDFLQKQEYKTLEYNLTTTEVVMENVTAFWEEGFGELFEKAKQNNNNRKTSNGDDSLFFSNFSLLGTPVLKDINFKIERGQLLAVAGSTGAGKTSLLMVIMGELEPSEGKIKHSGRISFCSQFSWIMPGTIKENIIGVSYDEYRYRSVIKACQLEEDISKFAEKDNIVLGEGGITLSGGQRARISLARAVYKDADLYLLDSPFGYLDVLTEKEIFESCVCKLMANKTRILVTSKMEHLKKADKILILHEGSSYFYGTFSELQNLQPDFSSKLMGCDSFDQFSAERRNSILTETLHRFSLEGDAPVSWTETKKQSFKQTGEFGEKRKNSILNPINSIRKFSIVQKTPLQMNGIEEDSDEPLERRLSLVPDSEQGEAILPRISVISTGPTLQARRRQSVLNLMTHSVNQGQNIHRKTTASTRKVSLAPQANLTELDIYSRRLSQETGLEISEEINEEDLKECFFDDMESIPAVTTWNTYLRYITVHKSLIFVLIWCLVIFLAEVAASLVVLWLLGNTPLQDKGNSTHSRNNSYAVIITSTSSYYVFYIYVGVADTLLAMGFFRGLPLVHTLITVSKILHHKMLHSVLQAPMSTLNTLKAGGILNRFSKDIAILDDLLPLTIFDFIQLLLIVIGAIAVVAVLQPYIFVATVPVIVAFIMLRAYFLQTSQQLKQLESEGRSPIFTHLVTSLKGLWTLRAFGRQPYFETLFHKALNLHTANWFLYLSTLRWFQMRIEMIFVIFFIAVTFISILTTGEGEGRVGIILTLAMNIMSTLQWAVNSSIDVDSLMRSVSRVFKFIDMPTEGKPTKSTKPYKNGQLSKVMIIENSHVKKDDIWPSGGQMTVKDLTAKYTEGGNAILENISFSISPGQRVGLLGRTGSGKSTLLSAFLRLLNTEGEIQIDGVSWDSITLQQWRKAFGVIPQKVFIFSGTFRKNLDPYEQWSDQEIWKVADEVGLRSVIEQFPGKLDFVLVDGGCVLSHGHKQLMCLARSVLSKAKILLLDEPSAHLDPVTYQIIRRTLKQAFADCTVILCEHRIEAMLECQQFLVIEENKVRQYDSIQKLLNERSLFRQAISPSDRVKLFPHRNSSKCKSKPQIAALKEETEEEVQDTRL

Take `COc1nc(C(C)(C)C)ccc1CN[C@H]1[C@H](C(C)(C)C)[C@@H](C(=O)O)N(C(=O)[C@H]2CCC[C@@H](OC)C2)[C@H]1c1ccccc1` (relative stereo) [II-456]: under setting [1], the Emax was above 200%. Besides, the EC50 reads like this: under setting [2], 1000 to 10000 nM; under setting [4], 1000 to 10000 nM. Under setting [3], the “Maximum % activity (with co-corrector)” value is given as “+++ (≥350)”.

Consider `COc1ccc(C(C)(C)C)cc1CN[C@H]1[C@H](C(C)(C)C)[C@@H](C(=O)O)N(C(=O)[C@@H]2[C@H](C(F)(F)F)[C@@H]3CC[C@H]2O3)[C@H]1c1cccnc1N(C)C` (relative stereo) [II-473], for which the Emax under setting [1] is above 200%. In addition, the EC50 by setting is: under setting [2], 1000 to 10000 nM; under setting [4], below 1000 nM. Also, the “Maximum % activity (with co-corrector)” value under setting [3] is reported as “+++ (≥350)”.

Regarding `COc1nc(C(C)(C)C)ncc1CN[C@H]1[C@H](C(C)(C)C)[C@@H](C(=O)O)N(C(=O)C2CCCC(F)(F)C2)[C@H]1c1ccccc1` (relative stereo) [II-477], under setting [1], the Emax lay in the range of 100 to 200%. Besides, the half-maximal effective concentration (EC50) by setting is: under setting [2], below 1000 nM; under setting [4], 1000 to 10000 nM. The “Maximum % activity (with co-corrector)” value under setting [3] is “+++ (≥350)”.

Take `Cc1cc(C(F)(F)F)cc(N[C@H]2[C@H](C(C)(C)C)[C@@H](C(=O)O)N(C(=O)C3CCCCO3)[C@H]2c2cccnc2N(C)C)n1` (relative stereo) [II-504]: the Emax under setting [1] is below 100%. Besides, the half-maximal effective concentration (EC50) by setting is: under setting [2], 1000 to 10000 nM; under setting [4], 1000 to 10000 nM. Under setting [3], the “Maximum % activity (with co-corrector)” value was “++ (≥150 and <350)”.

On to `COc1ccc(C(C)(C)C)cc1CN[C@H]1[C@H](C(C)(C)C)[C@@H](C(=O)O)N(C(=O)[C@@H]2[C@@H](C(F)(F)F)[C@@H]3CC[C@H]2O3)[C@H]1c1ccccc1` (relative stereo) [II-505], for which, under setting [1], the Emax is above 200%. For the same compound, the EC50 is 1000 to 10000 nM under setting [2] and below 1000 nM under setting [4]. Moreover, under setting [3], the “Maximum % activity (with co-corrector)” value is reported as “+++ (≥350)”.

Take `COc1ccc(C(C)(C)C)cc1CN[C@H]1[C@H](C(C)(C)C)[C@@H](C(=O)O)N(C(=O)[C@H]2[C@H](C(F)(F)F)[C@H]3CC[C@@H]2O3)[C@H]1c1ccccc1` (relative stereo) [II-506]: the Emax under setting [1] was above 200%. Further, the EC50 under setting [2] fell in the range of 1000 to 10000 nM and the EC50 under setting [4] is below 1000 nM. The “Maximum % activity (with co-corrector)” value under setting [3] is recorded as “+++ (≥350)”.

For `COc1ccc(C(C)(C)C)cc1CN[C@H]1[C@H](C(C)(C)C)[C@@H](C(=O)O)N(C(=O)[C@@H]2[C@@H](C(F)(F)F)[C@@H]3CC[C@H]2O3)[C@H]1c1ccccc1OC(F)F` (relative stereo) [II-507], under setting [1], the Emax lay within 100 to 200%. In addition, the EC50 by setting is: under setting [2], below 1000 nM; under setting [4], below 1000 nM. Besides, the “Maximum % activity (with co-corrector)” value under setting [3] is listed as “+++ (≥350)”.

For `COc1ccc(C(C)(C)C)cc1CN[C@H]1[C@H](C(C)(C)C)[C@@H](C(=O)O)N(C(=O)[C@@H]2C[C@H]3CC[C@@H]2O3)[C@H]1c1cccnc1OC` (relative stereo) [II-522], under setting [1], the Emax was below 100%. For the same compound, the EC50 lay in the range of 1000 to 10000 nM under setting [2] and 1000 to 10000 nM under setting [4]. Also, the “Maximum % activity (with co-corrector)” value under setting [3] was “+++ (≥350)”.

In the case of `COc1cccc([C@H]2[C@@H](NCc3cc(C(F)(F)F)ccc3OC)[C@H](C(C)(C)C)[C@@H](C(=O)O)N2C(=O)C2(C)CCCOC2)n1` (relative stereo) [III-70], the Emax under setting [1] is below 100%. In addition, the EC50 under setting [2] is above 10000 nM and the concentration giving a half-maximal response (EC50) under setting [4] lay in the range of 1000 to 10000 nM. Under setting [3], the “Maximum % activity (with co-corrector)” value was “++ (≥150 and <350)”.

In the case of `COc1ccc(C(F)(F)F)cc1CN[C@@H]1[C@@H](C(C)(C)C)[C@H](C(=O)O)N(C(=O)C(OC)c2ccccc2)[C@@H]1c1cccnc1N(C)C` (relative stereo) [III-88], under setting [1], the Emax was below 100%. The EC50 under setting [2] was above 10000 nM and the EC50 under setting [4] lay within 1000 to 10000 nM. Moreover, under setting [3], the “Maximum % activity (with co-corrector)” value is “++ (≥150 and <350)”.

Turning to `COc1ccc(C(C)(C)C)cc1CN[C@H]1[C@H](C(C)(C)C)[C@@H](C(=O)O)N(C(=O)C2Cc3ccccc3O2)[C@H]1c1ccccc1` (single isomer, unassigned) [Example 28, (2S,3S,4S,5S)-3-tert-butyl-4-{[(5-tert-butyl-2-methoxyphenyl)methyl]amino}-1-[(2S*)-2,3-dihydro-1-benzofuran-2-carbonyl]-5-phenylpyrrolidine-2-carboxylic acid], the EC50 is below 1000 nM under setting [2] and below 1000 nM under setting [4]. Where the note is “with co-corrector (2 μM)”, the “Maximum % activity (with co-corrector)” value is “+++ (≥350)”. The Emax (without co-corrector) was above 200%.

`COc1ccc(C(C)(C)C)cc1CN[C@H]1[C@H](C(C)(C)C)[C@@H](C(=O)O)N(C(=O)C2Cc3ccccc3O2)[C@H]1c1cccnc1N(C)C` (single isomer, unassigned) [Example 36, (2S,3S,4S,5S)-3-tert-butyl-4-{[(5-tert-butyl-2-methoxyphenyl)methyl]amino}-1-[(2S*)-2,3-dihydro-1-benzofuran-2-carbonyl]-5-[2-(dimethylamino)pyridin-3-yl]pyrrolidine-2-carboxylic acid]: the EC50 is below 1000 nM under setting [2] and below 1000 nM under setting [4]. In addition, for the setting “with co-corrector (2 μM)”, the “Maximum % activity (with co-corrector)” value is recorded as “+++ (≥350)”. The Emax (without co-corrector) was 100 to 200%.

`COc1ccc(C2(C(F)(F)F)CC2)cc1CN[C@H]1[C@H](C(C)(C)C)[C@@H](C(=O)O)N(C(=O)C2Cc3ccccc3O2)[C@H]1c1cccnc1N(C)C` (single isomer, unassigned) [Example 37, (2S,3S,4S,5S)-3-tert-butyl-1-[(2R*)-2,3-dihydro-1-benzofuran-2-carbonyl]-5-[2-(dimethylamino)pyridin-3-yl]-4-[({2-methoxy-5-[1-(trifluoromethyl)cyclopropyl]phenyl}methyl)amino]pyrrolidine-2-carboxylic acid]: the EC50 under setting [2] was below 1000 nM and the EC50 under setting [4] was below 1000 nM. Moreover, the “Maximum % activity (with co-corrector)” value (with co-corrector (2 μM), 2 µM) is “++ (≥150 and <350)”. Moreover, the “Maximum % activity (without co-corrector)” value (without co-corrector) is “+ (<100)”.

As for `COc1ccc(C(C)(C)C)cc1CN[C@H]1[C@H](C(C)(C)C)[C@@H](C(=O)O)N(C(=O)C2CCCC(F)(F)C2)[C@H]1c1cccnc1N(C)C` (single isomer, unassigned) [Example 42, (2S,3S,4S,5S)-3-tert-butyl-4-{[(5-tert-butyl-2-methoxyphenyl)methyl]amino}-1-[(1R*)-3,3-difluorocyclohexane-1-carbonyl]-5-[2-(dimethylamino)pyridin-3-yl]pyrrolidine-2-carboxylic acid], the EC50 is below 1000 nM under setting [2] and below 1000 nM under setting [4]. The “Maximum % activity (with co-corrector)” value (with co-corrector (2 μM)) is on record as “+++ (≥350)”. In addition, the Emax (without co-corrector) is above 200%.

Consider `COc1ccc(C(C)(C)C)cc1CN[C@H]1[C@H](C(C)(C)C)[C@@H](C(=O)O)N(C(=O)C2CCc3ccccc3O2)[C@H]1c1cccnc1N(C)C` (single isomer, unassigned) [Example 43, (2S,3S,4S,5S)-3-tert-butyl-4-{[(5-tert-butyl-2-methoxyphenyl)methyl]amino}-1-[(2S*)-3,4-dihydro-2H-1-benzopyran-2-carbonyl]-5-[2-(dimethylamino)pyridin-3-yl]pyrrolidine-2-carboxylic acid], for which the concentration for a half-maximal effect (EC50) was 1000 to 10000 nM under setting [2] and below 1000 nM under setting [4]. For the setting “with co-corrector (2 μM)”, the “Maximum % activity (with co-corrector)” value is listed as “+++ (≥350)”. In addition, the Emax (without co-corrector) fell in the range of 100 to 200%.

`COc1ccc(C(C)(C)C)cc1CN[C@H]1[C@H](C(C)(C)C)[C@@H](C(=O)O)N(C(=O)C2CCCC(F)(F)C2)[C@H]1c1cccnc1N(C)C` (single isomer, unassigned) [Example 44, (2S,3S,4S,5S)-3-tert-butyl-4-{[(5-tert-butyl-2-methoxyphenyl)methyl]amino}-1-[(1S*)-3,3-difluorocyclohexane-1-carbonyl]-5-[2-(dimethylamino)pyridin-3-yl]pyrrolidine-2-carboxylic acid]: the EC50 by setting is: under setting [2], 1000 to 10000 nM; under setting [4], below 1000 nM. For the setting “with co-corrector (2 μM)”, the “Maximum % activity (with co-corrector)” value is “+++ (≥350)”. Also, the “Maximum % activity (without co-corrector)” value (without co-corrector) is “+++ (≥200)”.

As to `COc1ccc(C(C)(C)C)cc1CN[C@H]1[C@H](C(C)(C)C)[C@@H](C(=O)O)N(C(=O)C2CCc3ccccc3O2)[C@H]1c1ccccc1` (single isomer, unassigned) [Example I-83], the concentration giving a half-maximal response (EC50) fell in the range of 1000 to 10000 nM under setting [2] and 1000 to 10000 nM under setting [4]. For the setting “with co-corrector (2 μM)”, the “Maximum % activity (with co-corrector)” value is given as “+++ (≥350)”. For the same compound, the Emax (without co-corrector) lay in the range of 100 to 200%.

As to `COc1ccc(C(C)(C)C)cc1CN[C@H]1[C@H](C(C)(C)C)[C@@H](C(=O)O)N(C(=O)C(OC)C2CC2)[C@H]1c1ccccc1` (single isomer, unassigned) [Example I-95], the EC50 is, setting by setting: under setting [2], 1000 to 10000 nM; under setting [4], 1000 to 10000 nM. In addition, the “Maximum % activity (with co-corrector)” value (with co-corrector (2 μM)) is “+++ (≥350)”. For the same compound, under “without co-corrector”, the Emax is above 200%.

As for `COc1ccc(C(C)(C)C)cc1CN[C@H]1[C@H](C(C)(C)C)[C@@H](C(=O)O)N(C(=O)C(OC)C2CC2)[C@H]1c1ccccc1` (single isomer, unassigned) [Example I-96], under setting [2], the EC50 lay within 1000 to 10000 nM. Moreover, for the setting “with co-corrector (2 μM)”, the “Maximum % activity (with co-corrector)” value is “+++ (≥350)”.

For the compound `COc1ccc(C(C)(C)C)cc1CN[C@H]1[C@H](C(C)(C)C)[C@@H](C(=O)O)N(C(=O)C2Cc3ccccc3O2)[C@H]1c1cccnc1OC` (single isomer, unassigned) [Example I-165], the EC50 reads like this: under setting [2], below 1000 nM; under setting [4], below 1000 nM. The “Maximum % activity (with co-corrector)” value (with co-corrector (2 μM)) was “+++ (≥350)”. The Emax (without co-corrector) fell in the range of 100 to 200%.
